Assay results taken from ChEMBL document CHEMBL5543169, “Exploring Subsite Selectivity within Plasmodium vivax N-Myristoyltransferase Using Pyrazole-Derived Inhibitors” (J Med Chem, 2024).

Key:
[1] = Inhibition of Plasmodium vivax NMT
[2] = Inhibition of N-terminal 6His-tagged Plasmodium vivax NMT (27 to 410 residues) expressed in Escherichia coli Rosetta 2 (DE3) cells preincubated for 30 mins followed by myrCoA, PfARF and CPM addition by fluorescence based plate reader assay

Row | Structure (SMILES) | IC50 [1] [µM] | IC50 [2] [µM]
1 | O=C(c1cccc(NCc2cc(-c3ccc(Cl)cc3)c[nH]c2=O)c1)N1CCOCC1 | 3.4 | 
2 | Cc1c(CCOc2ccc3ccccc3c2-c2ccnc(N3CCNCC3)c2)c(C(=O)NCC(N)=O)nn1C |  | 5.07
3 | Cc1nn(C)c(C)c1CCOc1cccnc1-c1cccc(N2CCNCC2)c1 |  | 0.0802
4 | Cc1c(CCOc2ccc3ccccc3c2-c2ccnc(N3CCNCC3)c2)c(C(=O)Nc2cccnc2)nn1C |  | 1
